Among the data in paper PMC11617632, “Long-range conformational changes in the nucleotide-bound states of the DEAD-box helicase Vasa” (Biophysical Journal, 2024) are Kd values, retold here.

Type in all cases: binding
For test [1], the target named is T1, Vasa (Bombyx mori, UniProt O01378).
T1 construct: gene BmVLG
T1 sequence (O01378 135-564): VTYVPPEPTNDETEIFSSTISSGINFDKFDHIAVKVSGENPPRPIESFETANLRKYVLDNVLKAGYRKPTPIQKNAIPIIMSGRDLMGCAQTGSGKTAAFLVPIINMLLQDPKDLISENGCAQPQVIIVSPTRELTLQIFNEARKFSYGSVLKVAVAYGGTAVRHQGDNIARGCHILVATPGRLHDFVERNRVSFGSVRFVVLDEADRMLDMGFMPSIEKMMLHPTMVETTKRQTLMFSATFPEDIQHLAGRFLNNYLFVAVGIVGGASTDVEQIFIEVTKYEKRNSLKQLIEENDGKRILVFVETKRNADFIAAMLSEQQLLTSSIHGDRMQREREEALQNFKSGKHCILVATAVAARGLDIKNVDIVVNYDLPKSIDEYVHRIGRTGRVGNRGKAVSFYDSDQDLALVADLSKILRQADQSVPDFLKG
Nature of the test: NMR titration, 1H-13C methyl-HMQC, slow exchange.

In test [2] the target is T2, Vasa (Bombyx mori, UniProt O01378).
T2 construct: gene BmVLG
T2 sequence (O01378 135-400): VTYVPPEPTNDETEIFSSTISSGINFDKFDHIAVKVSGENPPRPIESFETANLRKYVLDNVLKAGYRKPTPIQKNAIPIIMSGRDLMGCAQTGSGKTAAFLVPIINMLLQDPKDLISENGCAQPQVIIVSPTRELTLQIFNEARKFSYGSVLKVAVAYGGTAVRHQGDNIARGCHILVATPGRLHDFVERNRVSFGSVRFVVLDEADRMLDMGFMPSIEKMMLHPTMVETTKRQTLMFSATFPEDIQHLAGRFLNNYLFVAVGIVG
Kind of test: NMR CSP titration, fast exchange.

In test [3] the target is T1, Vasa. Kind of test: NMR methyl CSP titration, fast exchange (not saturated; KD inaccurate).

For orientation: Kd means the constant that tells how readily two partners part at equilibrium. Low values mean a tighter complex, high ones a looser complex. The compound `Nc1ncnc2c1ncn2[C@@H]1O[C@H](COP(=O)(O)OP(=O)(O)O)[C@@H](O)[C@H]1O` [ADP] yielded a Kd in test [1] of 53 ± 15 µM. As to `Nc1ncnc2c1ncn2[C@@H]1O[C@H](COP(=O)(O)OP(=O)(O)OP(=O)(O)O)[C@@H](O)[C@H]1O` [ATP], the affinity in test [2], expressed as Kd, was 1600 ± 600 µM. Turning to `Nc1ncnc2c1ncn2[C@@H]1O[C@H](CO[P@](=O)(O)O[P@](=O)(O)O[P@@](=O)(O)S)[C@@H](O)[C@H]1O` [ATPγS, adenosine 5′-γ-thiotriphosphate], in test [3], the Kd was around 18800 µM.
